This note sets out measurements from patent US7772212B2, “Isomaltooligosaccharides to inhibit avian pathogenic intestinal bacteria” (priority 2003, dated 2010).

Molecules are shown by their SMILES.

The test system of test [1] is α-Glucosidase (maltase; EC 3.2.1.20). Nature of the test: Kinetic assay for α-glucosidase. The class given is biochemical. Particulars: 0%, 0.25%, 0.5% test sugar; maltose 0, 50, 100, 250 mM; 37° C., pH 7. As for the experimental part: α-Glucosidase (maltase; EC 3.2.1.20), β-NAD, glucose dehydrogenase (EC 1.1.147) and other reagent chemicals were obtained from the Sigma Chemical Co. (St. Louis, Mo.). The kinetic assays were based on the following reaction;
The kinetic assays were all performed in 96-well plates and read at wavelength 320 nm in a SPECTRAmax Plus microtiter plate reader (Molecular Devices Corp., Sunnyvale, Calif.) at 37° C. The software package Softmax™ was used for data analysis. α-Glucosidase (maltase; EC 3.2.1.20), β-NAD, and glucose dehydrogenase (EC 1.1.147) solutions were prepared with 0.1M K2HPO4 (pH 7) buffer. Each well contained 25 μl of 0.13 IU/ml glucose dehydrogenase, 25 μl of 1.65 IU/ml of α-glucosidase, and 20 μl of 12 mM of G-NAD in a total volume of 200 μl with different combinations of sugars and 0.1M K2HPO4 (pH 7) buffer. Absorbance change with time was measured at 320 nm.
In order to determine the role of branching in the inhibition, the Ki values for panose and isomaltotriose were also determined.

For another test, the system named is B. longum. Nature of the test: Growth test with panose and maltooligosaccharides. Conditions: combinations of panose and maltooligosaccharides (DP 4 to DP 10), anaerobic, 37° C. Format: cell-based, Bifidobacterium longum. As for the experimental part:
(§1) To further determine whether Leuconostoc IMO acts as a starch-metabolism inhibitor, B. longum and S. typhimurium were grown in different combinations of panose and maltooligosaccharides (from DP 4 to DP 10). As the concentration of panose in the growth medium increased, the growth of S. typhimurium slowed but B. longum growth increased. (FIGS. 11A and 11B, respectively).

The test system of another test is S. typhimurium. Nature of the test: Growth test with panose and maltooligosaccharides. The class given is cell-based, Salmonella typhimurium. Conditions: combinations of panose and maltooligosaccharides (DP 4 to DP 10), anaerobic, 37° C. As for the experimental part:
as §1

As for `OC[C@H]1O[C@H](OC[C@H]2O[C@H](O[C@H]3[C@H](O)[C@@H](O)C(O)O[C@@H]3CO)[C@H](O)[C@@H](O)[C@@H]2O)[C@H](O)[C@@H](O)[C@@H]1O` (stereo partly shown) [panose], the “Inhibition of α-glucosidase (maltase) activity” value in test [1] is “showed an inhibition”. For the same compound, the “Growth of B. longum as panose concentration in medium increased” value in the test with B. longum is given as “increased”. The “Growth of S. typhimurium as panose concentration in medium increased” value in the test with S. typhimurium is “slowed”.

For `OC[C@H]1O[C@H](OC[C@H]2O[C@H](OC[C@H]3OC(O)[C@H](O)[C@@H](O)[C@@H]3O)[C@H](O)[C@@H](O)[C@@H]2O)[C@H](O)[C@@H](O)[C@@H]1O` (stereo partly shown) [Isomaltotriose, isomaltotriose], the “Inhibition of α-glucosidase (maltase) activity” value in test [1] was “not inhibitory”.
